In patent US9617253B2, “Molecules having pesticidal utility, and intermediates, compositions, and processes, related thereto” (Dow AgroSciences LLC, priority 2015, dated 2017):

Assays:
[1] = test system: Beet Armyworm (Spodoptera exigua, LAPHEG); assay: Bioassay on Beet Armyworm (BAW), 128-well diet tray assay; assay type: in vivo; conditions: 168 h, second instar BAW larvae, 50 μg/cm^2 on artificial diet, 25° C., five to seven days, average of eight wells, read-out: BAW % Control (or Mortality) rating
Experimental: (§1) Certain molecules disclosed in this document were tested against BAW and CL using procedures described in the following examples. In the reporting of the results, the “BAW & CL Rating Table” was used (See Table Section).
Bioassays on BAW were conducted using a 128-well diet tray assay. One to five second instar BAW larvae were placed in each well (3 mL) of the diet tray that had been previously filled with 1 mL of artificial diet to which 50 μg/cm^2 of the test molecule (dissolved in 50 μL of 90:10 acetone-water mixture) had been applied (to each of eight wells) and then allowed to dry. Trays were covered with a clear self-adhesive cover, vented to allow gas exchange, and held at 25° C., 14:10 light-dark for five to seven days. Percent mortality was recorded for the larvae in each well; activity in the eight wells was then averaged. The results are indicated in the table entitled “Table ABC: Biological Results” (See Table Section).

[2] = test system: Cabbage Looper (Trichoplusia ni, TRIPNI); assay: Bioassay on Cabbage Looper (CL), 128-well diet tray assay; assay type: in vivo; conditions: 168 h, second instar CL larvae, 50 μg/cm^2 on artificial diet, 25° C., five to seven days, average of eight wells, read-out: CL % Control (or Mortality) rating
Experimental: as §1
Bioassays on CL were conducted using a 128-well diet tray assay. One to five second instar CL larvae were placed in each well (3 mL) of the diet tray that had been previously filled with 1 mL of artificial diet to which 50 μg/cm^2 of the test molecule (dissolved in 50 μL of 90:10 acetone-water mixture) had been applied (to each of eight wells) and then allowed to dry. Trays were covered with a clear self-adhesive cover, vented to allow gas exchange, and held at 25° C., 14:10 light-dark for five to seven days. Percent mortality was recorded for the larvae in each well; activity in the eight wells was then averaged. The results are indicated in the table entitled “Table ABC: Biological Results” (See Table Section).

| melting point | Compound | mortality at 50 µg/cm2 [1] | mortality at 50 µg/cm2 [2] |
| --- | --- | --- | --- |
| 147 to 152 °C | COC(C)c1ccc(C)cc1N1C(=O)CS/C1=N\C(=O)Nc1c(F)cc(OCc2ncn(-c3ccc(OC(F)(F)F)cc3)n2)cc1F (stereo not shown) |  |  |
| 165 to 167 °C | COCc1ccc(C)cc1N1C(=O)CS/C1=N\C(=O)Nc1ccc(OCc2ncn(-c3ccc(OC(F)(F)F)cc3)n2)cc1 |  |  |
| 132 to 134 °C | COCc1ccc(C)cc1N1C(=O)CS/C1=N\C(=O)Nc1ccc(OCc2ncn(-c3ccc(OC(F)(F)F)cc3)n2)cc1F |  |  |
| 169 to 172 °C | CCCc1ccc(C)cc1N1C(=O)CS/C1=N\C(=O)Nc1c(F)cc(OCc2ncn(-c3ccc(OC(F)(F)F)cc3)n2)cc1F |  |  |
| 148 to 150 °C | COCc1ccc(C)cc1N1C(=O)CS/C1=N\C(=O)Nc1ccc(OCc2ncn(-c3ccc(OC(F)(F)F)cc3)n2)cc1Cl |  |  |
|  | Cc1ccc(C(C)C)c(N2C(=O)CS/C2=N\C(=O)Nc2ccc(OCc3ncn(-c4ccc(OC(F)(F)F)cc4)n3)cc2Cl)c1 [F29, (Z)-1-(2-Chloro-4-((1-(4-(trifluoromethoxy)phenyl)-1H-1,2,4-triazol-3-yl)methoxy)phenyl)-3-(3-(2-isopropyl-5-methylphenyl)-4-oxothiazolidin-2-ylidene)urea] | 50 to 100% | 50 to 100% |
|  | CCCc1ccc(C)cc1N1C(=O)CS/C1=N\C(=O)Nc1ccc(OCc2ncn(-c3ccc(OC(F)(F)F)cc3)n2)cc1Cl [F30, (Z)-1-(2-Chloro-4-((1-(4-(trifluoromethoxy)phenyl)-1H-1,2,4-triazol-3-yl)methoxy)phenyl)-3-(3-(5-methyl-2-propylphenyl)-4-oxothiazolidin-2-ylidene)urea] | 50 to 100% | 50 to 100% |
|  | COc1cc(OCc2ncn(-c3ccc(OC(F)(F)F)cc3)n2)ccc1NC(=O)/N=C1\SCC(=O)N1c1cc(C)ccc1C(C)C [F32, (Z)-1-(3-(2-Isopropyl-5-methylphenyl)-4-oxothiazolidin-2-ylidene)-3-(2-methoxy-4-((1-(4-(trifluoromethoxy)phenyl)-1H-1,2,4-triazol-3-yl)methoxy)phenyl)urea] | 50 to 100% | 50 to 100% |
|  | CCCc1ccc(C)cc1N1C(=O)CS/C1=N\C(=O)Nc1ccc(OCc2ncn(-c3ccc(OC(F)(F)F)cc3)n2)cc1OC [F33, (Z)-1-(2-Methoxy-4-((1-(4-(trifluoromethoxy)phenyl)-1H-1,2,4-triazol-3-yl)methoxy)phenyl)-3-(3-(5-methyl-2-propylphenyl)-4-oxothiazolidin-2-ylidene)urea] | 50 to 100% | 50 to 100% |
|  | COCc1ccc(C)cc1N1C(=O)CS/C1=N\C(=O)Nc1ccc(OCc2ncn(-c3ccc(OC(F)(F)F)cc3)n2)cc1OC [F34, (Z)-1-(2-Methoxy-4-((1-(4-(trifluoromethoxy)phenyl)-1H-1,2,4-triazol-3-yl)methoxy)phenyl)-3-(3-(2-(methoxymethyl)-5-methylphenyl)-4-oxothiazolidin-2-ylidene)urea] | 50 to 100% | 50 to 100% |
|  | Cc1ccc(C(C)C)c(N2C(=O)CS/C2=N\C(=O)Nc2ccc(OCc3ncn(-c4ccc(OC(F)(F)F)cc4)n3)c(F)c2)c1 [F35, (Z)-1-(3-Fluoro-4-((1-(4-(trifluoromethoxy)phenyl)-1H-1,2,4-triazol-3-yl)methoxy)phenyl)-3-(3-(2-isopropyl-5-methylphenyl)-4-oxothiazolidin-2-ylidene)urea] | 50 to 100% | 50 to 100% |
|  | CCCc1ccc(C)cc1N1C(=O)CS/C1=N\C(=O)Nc1ccc(OCc2ncn(-c3ccc(OC(F)(F)F)cc3)n2)c(F)c1 [F36, (Z)-1-(3-Fluoro-4-((1-(4-(trifluoromethoxy)phenyl)-1H-1,2,4-triazol-3-yl)methoxy)phenyl)-3-(3-(5-methyl-2-propylphenyl)-4-oxothiazolidin-2-ylidene)urea] | 50 to 100% | 50 to 100% |
|  | COCc1ccc(C)cc1N1C(=O)CS/C1=N\C(=O)Nc1ccc(OCc2ncn(-c3ccc(OC(F)(F)F)cc3)n2)c(F)c1 [F37, (Z)-1-(3-Fluoro-4-((1-(4-(trifluoromethoxy)phenyl)-1H-1,2,4-triazol-3-yl)methoxy)phenyl)-3-(3-(2-(methoxymethyl)-5-methylphenyl)-4-oxothiazolidin-2-ylidene)urea] | 50 to 100% | 50 to 100% |
|  | Cc1ccc(C(C)C)c(N2C(=O)CS/C2=N\C(=O)Nc2ccc(OCc3ncn(-c4ccc(OC(F)(F)F)cc4)n3)c(Cl)c2)c1 [F38, (Z)-1-(3-Chloro-4-((1-(4-(trifluoromethoxy)phenyl)-1H-1,2,4-triazol-3-yl)methoxy)phenyl)-3-(3-(2-isopropyl-5-methylphenyl)-4-oxothiazolidin-2-ylidene)urea] | 50 to 100% | 50 to 100% |
|  | CCCc1ccc(C)cc1N1C(=O)CS/C1=N\C(=O)Nc1ccc(OCc2ncn(-c3ccc(OC(F)(F)F)cc3)n2)c(Cl)c1 [F39, (Z)-1-(3-Chloro-4-((1-(4-(trifluoromethoxy)phenyl)-1H-1,2,4-triazol-3-yl)methoxy)phenyl)-3-(3-(5-methyl-2-propylphenyl)-4-oxothiazolidin-2-ylidene)urea] | 50 to 100% | 50 to 100% |
|  | COCc1ccc(C)cc1N1C(=O)CS/C1=N\C(=O)Nc1ccc(OCc2ncn(-c3ccc(OC(F)(F)F)cc3)n2)c(Cl)c1 [F40, (Z)-1-(3-Chloro-4-((1-(4-(trifluoromethoxy)phenyl)-1H-1,2,4-triazol-3-yl)methoxy)phenyl)-3-(3-(2-(methoxymethyl)-5-methylphenyl)-4-oxothiazolidin-2-ylidene)urea] | 50 to 100% | 50 to 100% |
|  | CCCc1ccc(C)cc1N1C(=O)CS/C1=N\C(=O)Nc1cc(F)c(OCc2ncn(-c3ccc(OC(F)(F)F)cc3)n2)c(F)c1 [F42, (Z)-1-(3,5-Difluoro-4-((1-(4-(trifluoromethoxy)phenyl)-1H-1,2,4-triazol-3-yl)methoxy)phenyl)-3-(3-(5-methyl-2-propylphenyl)-4-oxothiazolidin-2-ylidene)urea] | 50 to 100% | 50 to 100% |
|  | COCc1ccc(C)cc1N1C(=O)CS/C1=N\C(=O)Nc1cc(F)c(OCc2ncn(-c3ccc(OC(F)(F)F)cc3)n2)c(F)c1 [F43, (Z)-1-(3,5-Difluoro-4-((1-(4-(trifluoromethoxy)phenyl)-1H-1,2,4-triazol-3-yl)methoxy)phenyl)-3-(3-(2-(methoxymethyl)-5-methylphenyl)-4-oxothiazolidin-2-ylidene)urea] | 50 to 100% | 50 to 100% |
|  | Cc1ccc(C(C)C)c(N2C(=O)CS/C2=N\C(=O)Nc2ccc(OCc3ncn(-c4ccc(OC(F)(F)F)cc4)n3)nc2)c1 [F44, (Z)-1-(3-(2-Isopropyl-5-methylphenyl)-4-oxothiazolidin-2-ylidene)-3-(6-((1-(4-(trifluoromethoxy)phenyl)-1H-1,2,4-triazol-3-yl)methoxy)pyridin-3-yl)urea] | 50 to 100% | 50 to 100% |
|  | CCCc1ccc(C)cc1N1C(=O)CS/C1=N\C(=O)Nc1ccc(OCc2ncn(-c3ccc(OC(F)(F)F)cc3)n2)nc1 [F45, (Z)-1-(3-(5-Methyl-2-propylphenyl)-4-oxothiazolidin-2-ylidene)-3-(6-((1-(4-(trifluoromethoxy)phenyl)-1H-1,2,4-triazol-3-yl)methoxy)pyridin-3-yl)urea] | 0 to 50% | 0% |
|  | COCc1ccc(C)cc1N1C(=O)CS/C1=N\C(=O)Nc1ccc(OCc2ncn(-c3ccc(OC(F)(F)F)cc3)n2)nc1 [F46, (Z)-1-(3-(2-(Methoxymethyl)-5-methylphenyl)-4-oxothiazolidin-2-ylidene)-3-(6-((1-(4-(trifluoromethoxy)phenyl)-1H-1,2,4-triazol-3-yl)methoxy)pyridin-3-yl)urea] | 0 to 50% | 0% |
